For data set [1], the system named is human PBM cells. The conditions noted are these: read-out: Cytotoxicity IC50 PBM; uninfected PHA-stimulated human PBM cells.
For data set [2], the system named is HIV-1/LAI. In kind it is cell-based. Conditions: for EC50: read-out: Anti-HIV-1 activity in human PBM cells EC50, HIV-1/LAI, median effect method; for activity against HIV-1 (in words): human PBM cells.
A short description of data set [3]: in vitro. The conditions noted are these: human, uninfected PHA-stimulated human PBM cells.
Data set [4] can be described thus: in vitro. Conditions: human.
The nature of data set [5]: in vitro. Conditions: African green monkey, Vero (African green monkey kidney) cells.
The test system of data set [6] is CEM (T-lymphoblastoid cell line).
For data set [7], the system named is Vero (African green monkey kidney) cells. Conditions: read-out: Cytotoxicity IC50 Vero.
Data set [8] concerns HIV-1. Conditions: ref De Corte 2005; Pauwels et al. 1993; cited from earlier work.

Entries after “also recorded” stand apart in the source; their conditions may differ.

For the compound `Cc1cn([C@H]2C[C@H](N=[N+]=[N-])[C@@H](CO)O2)c(=O)[nH]c1=O` [AZT, 3′-Azido-2′,3′-dideoxythymidine, reference compound], the IC50 in data set [1] was over 100 µM.

Turning to `Cc1ccc(NC(C#N)c2ccc(OCc3ccc(Cl)cc3Cl)cc2)cc1` (stereo not shown) [Compound 2h, 2-[4-(2,4-Dichlorobenzyloxy)phenyl]-2-(4-toluidino)acetonitrile], the EC50 in data set [2] amounted to 3.1 µM. In addition, the IC50 in data set [3] was 15 µM; in data set [4], 11.7 µM; in data set [5], 39.7 µM.

For the compound `Cc1ccc(N2C(=O)CCC2(C#N)c2ccc(OC(C)C)cc2)cc1` (stereo not shown) [Compound 3e, 2-(4-Isopropoxyphenyl)-1-(4-methylphenyl)-5-oxo-2-pyrrolidinecarbonitrile], the values for the IC50 in data set [3], in data set [4] and in data set [5] were over 100 µM, 17 µM and 46.5 µM, respectively.

With `Cc1ccc(N2C(=O)CCC2(C#N)c2ccc(OCc3ccccc3)cc2)cc1` (stereo not shown) [Compound 3g, 2-(4-Benzyloxyphenyl)-1-(4-methylphenyl)-5-oxo-2-pyrrolidinecarbonitrile], the values for the IC50 in data set [3], in data set [4] and in data set [5] were over 100 µM, 30.3 µM and 53.9 µM, respectively.

For `Cc1ccc(N2C(=O)CCC2(C#N)c2ccc(OCc3ccc(Cl)cc3Cl)cc2)cc1` (stereo not shown) [Compound 3h, 2-[4-(2,4-Dichlorobenzyloxy)phenyl]-1-(4-methylphenyl)-5-oxo-2-pyrrolidinecarbonitrile], the values for the IC50 in data set [3], in data set [4] and in data set [5] were 9.7 µM, 6.6 µM and 21.8 µM, respectively.

For `Cc1cc(C)cc(NC(C(N)=O)c2c(Cl)cccc2Cl)c1` (stereo not shown) [Compound 4, 2-(2,6-Dichlorophenyl)-2-(3,5-dimethylanilino)acetamide], the “activity against HIV-1 (in words)” value in data set [2] is listed as “very potent; also recorded: very active”. Moreover, the 50% inhibitory concentration (IC50) came out at 6.1 µM in data set [3], 5.8 µM in data set [4] and 68.7 µM in data set [5].

Turning to `Cc1ccc(N2C(=O)CCC2(CN)c2ccccc2)cc1` (stereo not shown) [Compound 5a, 5-Aminomethyl-1-(4-methylphenyl)-5-phenyl-2-pyrrolidinone], the IC50 in data set [3] is 54.1 µM; in data set [4] it was 53.6 µM; in data set [5] it was over 100 µM.

`Cc1ccc(N2C(=O)CCC2(CN)c2ccc(OCc3ccccc3)cc2)cc1` (stereo not shown) [Compound 5f, 5-Aminomethyl-5-(4-benzyloxyphenyl)-1-(4-methylphenyl)-2-pyrrolidinone]: the IC50 in data set [3] was found to be 15.9 µM; in data set [4] it was 33.7 µM; in data set [5], 12.3 µM.

For `NCC1(c2ccccc2)CCCN1C(=O)c1ccc(Br)cc1` (stereo not shown) [Compound 10], in data set [2], the “activity against HIV-1 (in words)” value was “no inhibition”. For the same compound, the EC50 in data set [2] is over 100 µM. Besides, the EC90 in data set [2] (read-out: Anti-HIV-1 activity in human PBM cells EC90, HIV-1/LAI, median effect method) is over 100 µM. Further, the IC50 in data set [1] was over 100 µM; in data set [6], 96.1 µM; in data set [7], over 100 µM.

Turning to `CC(=O)c1ccc(C)cc1NC(C(N)=O)c1c(Cl)cccc1Cl` (stereo not shown) [loviride], the “inhibitory concentration relative to the cytotoxic concentration (fold less)” value in data set [8] is recorded as 10,000 fold.

As usually defined, the IC50 is the midpoint of a concentration-inhibition curve.

The values above are taken from PMC8301260 (Medicinal chemistry research : an international journal for …, 2016).
